# Assay results taken from ChEMBL document CHEMBL5120789, “Aspulvins A-H, Aspulvinone Analogues with SARS-CoV-2 Mpro Inhibitory and Anti-inflammatory Activities from an Endophytic Cladosporium sp” (J Nat Prod, 2022).
# Calls of active or inactive are those of the source. The rule behind the calls is not given here.
# Experiments:
# [1] = biological target: Replicase polyprotein 1ab (Severe acute respiratory syndrome coronavirus 2) (UniProt P0DTD1); assay: Inhibition of SARS-CoV-2 MPro at 10 uM incubated for 5 mins by FRET assay
# [2] = test system: J774.1; assay: Anti-inflammatory activity against mouse J774A.1 macrophage assessed as reduction in LPS-induced LDH release at 10 uM incubated for 1 hr in presence of nigericin by LDH assay; format: functional, cell-based
# [3] = test system: J774.1; assay: Anti-inflammatory activity against mouse J774A.1 macrophage assessed as reduction in LPS-induced LDH release incubated for 1 hr in presence of nigericin by LDH assay; format: functional, cell-based; settings: J774.1, 1 h
# [4] = test system: J774.1; assay: Anti-inflammatory activity against mouse J774A.1 macrophage assessed as reduction in LPS-induced IL-1beta maturation at 0.625 to 2.5 uM incubated for 1 hr in presence of nigericin by Western blot analysis; format: functional, cell-based; settings: dose 0.625-2.5 µM
# [5] = test system: J774.1; assay: Anti-inflammatory activity against mouse J774A.1 macrophage assessed as reduction in LPS-induced pyroptosis cells at 0.625 to 2.5 uM incubated for 1 hr in presence of nigericin by PI/Hoechst 33342 staining based inverted fluorescence microscopic analysis; format: functional, cell-based; settings: dose 0.625-2.5 µM, DDE = dose-dependent effect
# [6] = test system: J774.1; assay: Anti-inflammatory activity against mouse J774A.1 macrophage assessed as reduction in LPS-induced cleaved casp-1 expression at 0.625 to 2.5 uM incubated for 1 hr in presence of nigericin by Western blot analysis; format: functional, cell-based; settings: dose 0.625-2.5 µM
Compound,inhibition [1],inhibition [2],IC50 [3] [µM],Activity [4],Activity [5],Activity [6]
CC(C)=CCc1cc(/C=C2\OC(=O)C(c3ccc(O)cc3O)=C2O)ccc1O,Active,Active,2.4,,,
CC1(C)Oc2ccc(/C=C3\OC(=O)C(c4cc5c(cc4O)OC(C)(C)C(O)C5)=C3O)cc2CC1O (stereo not given),Active,,,,,
CC(C)=CCc1cc(/C=C2\OC(=O)C(c3cc(CC=C(C)C)c(O)cc3O)=C2O)ccc1O,Active,Active,3,,,
CC(C)=CCc1cc(/C=C2\OC(=O)C(c3cc4c(cc3O)OC(C)(C)C(O)C4)=C2O)ccc1O (stereo not given),Active,Active,4.2,,,
CC(C)=CCc1cc(C2=C(O)/C(=C/c3ccc4c(c3)CC(O)C(C)(C)O4)OC2=O)c(O)cc1O (stereo not given),Active,Active,2.8,,,
CC(C)=CCc1cc(C2=C(O)/C(=C/c3ccc(O)c(CCC(C)(C)O)c3)OC2=O)c(O)cc1O,Active,Active,3.1,,,
CC(C)(O)C1Cc2cc(/C=C3\OC(=O)C(c4cc5c(cc4O)OC(C)(C)C(O)C5)=C3O)ccc2O1 (stereo not given),Active,Active,0.7,Active,Dde,Active
CC(C)(O)C(O)Cc1cc(/C=C2\OC(=O)C(c3cc4c(cc3O)OC(C)(C)C(O)C4)=C2O)ccc1O (stereo not given),Active,,,,,
CC(C)=CCc1cc(C2=C(O)/C(=C/c3ccc(O)c(CC(O)C(C)(C)O)c3)OC2=O)c(O)cc1O (stereo not given),Active,Active,7.4,,,
CC(C)=CCc1cc(/C=C2\OC(=O)C(c3cc4c(cc3O)OC(C)(C)CC4)=C2O)ccc1O,Active,Active,0.8,,,
CC(C)=CCc1cc(/C=C2\OC(=O)C(c3cc(CCC(C)(C)O)c(O)cc3O)=C2O)ccc1O,Active,Active,3.3,,,
CC(C)=CCc1cc(C2=C(O)/C(=C/c3ccc4c(c3)C[C@H](C(C)(C)O)O4)OC2=O)c(O)cc1O,Active,Active,4.9,,,
